From ChEMBL document CHEMBL1909046, “DrugMatrix in vitro pharmacology data”
Where a SMILES comes first, the peptide text is derived from it. Bridges are numbered along the chain shown (N, C = ends). [ ]: non-standard residue; d: D form. The star is where a group is joined. Threoninol(2S,3R) = C[C@@H](O)[C@H](CO)N*

Tests used:
Nitric oxide synthase 1 = Nitric oxide synthase 1 (Rattus norvegicus, UniProt P29476); assay type: tissue-based, Cerebellum; also: in other assays of this panel Not Active means under 50% inhibition at 10 µM
[1] = DRUGMATRIX: Potassium Channel [KATP] radioligand binding (ligand: [3H] Glyburide); assay type: cell membranes, Membrane; details: hit-t15; Not Active = under 50% inhibition at 10 µM
Insulin receptor = Insulin receptor (Rattus norvegicus, UniProt P15127); assay type: cell membranes, Wistar, Liver, Membrane; also: in other assays of this panel Not Active means under 50% inhibition at 10 µM
[2] = target: Voltage-gated inwardly rectifying potassium channel KCNH2 (Homo sapiens, UniProt Q12809); details: hek293; also: in other assays of this panel Not Active means under 50% inhibition at 10 µM
[3] = DRUGMATRIX: Imidazoline I2, Central radioligand binding (ligand: [3H] Idazoxan); assay type: cell membranes, Rattus norvegicus, Wistar, Cerebral cortex, Membrane; details: Not Active = under 50% inhibition at 10 µM
[4] = target: C-C chemokine receptor type 5 (Homo sapiens, UniProt P51681); assay type: cell membranes, HEK293, Membrane; details: hek293; also: in other assays of this panel Not Active means under 50% inhibition at 10 µM
[5] = target: Beta-2 adrenergic receptor (Homo sapiens, UniProt P07550); assay: DRUGMATRIX: Adrenergic beta2 radioligand binding (ligand: [3H] CGP-12177); assay type: cell membranes, Membrane; details: cho; Not Active = under 50% inhibition at 10 µM
[6] = DRUGMATRIX: Sigma2 radioligand binding (ligand: [3H] Ifenprodil); assay type: cell membranes, Rattus norvegicus, Wistar, Brain, Membrane; details: Not Active = under 50% inhibition at 10 µM

Chain of Beta-2 adrenergic receptor (P07550 whole entry): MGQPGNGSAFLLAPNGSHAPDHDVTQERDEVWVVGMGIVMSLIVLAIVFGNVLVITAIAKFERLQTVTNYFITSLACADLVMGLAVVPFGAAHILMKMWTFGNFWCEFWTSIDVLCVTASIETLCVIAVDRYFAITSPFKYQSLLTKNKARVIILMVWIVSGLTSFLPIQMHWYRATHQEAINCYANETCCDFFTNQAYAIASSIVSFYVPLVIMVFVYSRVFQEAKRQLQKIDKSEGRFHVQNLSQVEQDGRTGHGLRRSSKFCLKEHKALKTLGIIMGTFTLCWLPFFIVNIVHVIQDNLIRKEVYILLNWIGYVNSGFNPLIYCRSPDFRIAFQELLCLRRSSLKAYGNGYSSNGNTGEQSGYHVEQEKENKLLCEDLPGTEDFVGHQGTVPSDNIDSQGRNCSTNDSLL
Chain of Insulin receptor (P15127 27-759 limits assumed): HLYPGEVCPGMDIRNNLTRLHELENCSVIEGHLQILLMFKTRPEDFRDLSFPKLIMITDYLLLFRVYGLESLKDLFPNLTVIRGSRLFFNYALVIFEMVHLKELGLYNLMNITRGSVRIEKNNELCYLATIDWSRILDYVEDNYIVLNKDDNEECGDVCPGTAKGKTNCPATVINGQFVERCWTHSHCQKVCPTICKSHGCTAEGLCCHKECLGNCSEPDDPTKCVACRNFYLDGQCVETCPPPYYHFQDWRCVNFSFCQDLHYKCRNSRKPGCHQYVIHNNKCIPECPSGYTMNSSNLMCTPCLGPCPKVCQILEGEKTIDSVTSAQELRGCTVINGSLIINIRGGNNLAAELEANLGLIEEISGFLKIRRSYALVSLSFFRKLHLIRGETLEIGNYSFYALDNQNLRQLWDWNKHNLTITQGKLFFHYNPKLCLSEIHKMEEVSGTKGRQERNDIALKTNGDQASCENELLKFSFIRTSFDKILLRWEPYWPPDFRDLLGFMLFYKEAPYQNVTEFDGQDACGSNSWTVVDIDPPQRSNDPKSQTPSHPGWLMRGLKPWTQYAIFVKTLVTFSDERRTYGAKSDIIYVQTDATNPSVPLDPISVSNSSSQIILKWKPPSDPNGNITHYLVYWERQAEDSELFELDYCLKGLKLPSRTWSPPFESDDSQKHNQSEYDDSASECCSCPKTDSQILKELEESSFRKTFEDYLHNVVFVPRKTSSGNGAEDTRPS
Chain of Insulin receptor (P15127 764-1383 limits assumed): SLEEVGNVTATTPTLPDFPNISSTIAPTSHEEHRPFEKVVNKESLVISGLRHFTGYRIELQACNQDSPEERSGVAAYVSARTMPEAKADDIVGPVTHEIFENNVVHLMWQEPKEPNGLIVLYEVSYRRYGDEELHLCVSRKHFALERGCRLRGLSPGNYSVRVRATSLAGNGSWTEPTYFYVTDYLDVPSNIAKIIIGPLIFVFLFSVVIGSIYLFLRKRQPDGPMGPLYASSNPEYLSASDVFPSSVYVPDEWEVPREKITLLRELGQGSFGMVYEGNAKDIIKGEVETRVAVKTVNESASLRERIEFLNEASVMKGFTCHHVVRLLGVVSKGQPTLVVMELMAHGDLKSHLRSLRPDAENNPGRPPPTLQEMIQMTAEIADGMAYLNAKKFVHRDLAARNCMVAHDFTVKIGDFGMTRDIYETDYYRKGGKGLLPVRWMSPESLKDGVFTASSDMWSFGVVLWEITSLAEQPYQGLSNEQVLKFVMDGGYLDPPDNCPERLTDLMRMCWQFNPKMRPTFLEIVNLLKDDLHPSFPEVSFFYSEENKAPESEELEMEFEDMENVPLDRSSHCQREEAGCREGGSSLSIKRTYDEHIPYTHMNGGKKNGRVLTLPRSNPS
Chain of Voltage-gated inwardly rectifying potassium channel KCNH2 (Q12809 whole entry): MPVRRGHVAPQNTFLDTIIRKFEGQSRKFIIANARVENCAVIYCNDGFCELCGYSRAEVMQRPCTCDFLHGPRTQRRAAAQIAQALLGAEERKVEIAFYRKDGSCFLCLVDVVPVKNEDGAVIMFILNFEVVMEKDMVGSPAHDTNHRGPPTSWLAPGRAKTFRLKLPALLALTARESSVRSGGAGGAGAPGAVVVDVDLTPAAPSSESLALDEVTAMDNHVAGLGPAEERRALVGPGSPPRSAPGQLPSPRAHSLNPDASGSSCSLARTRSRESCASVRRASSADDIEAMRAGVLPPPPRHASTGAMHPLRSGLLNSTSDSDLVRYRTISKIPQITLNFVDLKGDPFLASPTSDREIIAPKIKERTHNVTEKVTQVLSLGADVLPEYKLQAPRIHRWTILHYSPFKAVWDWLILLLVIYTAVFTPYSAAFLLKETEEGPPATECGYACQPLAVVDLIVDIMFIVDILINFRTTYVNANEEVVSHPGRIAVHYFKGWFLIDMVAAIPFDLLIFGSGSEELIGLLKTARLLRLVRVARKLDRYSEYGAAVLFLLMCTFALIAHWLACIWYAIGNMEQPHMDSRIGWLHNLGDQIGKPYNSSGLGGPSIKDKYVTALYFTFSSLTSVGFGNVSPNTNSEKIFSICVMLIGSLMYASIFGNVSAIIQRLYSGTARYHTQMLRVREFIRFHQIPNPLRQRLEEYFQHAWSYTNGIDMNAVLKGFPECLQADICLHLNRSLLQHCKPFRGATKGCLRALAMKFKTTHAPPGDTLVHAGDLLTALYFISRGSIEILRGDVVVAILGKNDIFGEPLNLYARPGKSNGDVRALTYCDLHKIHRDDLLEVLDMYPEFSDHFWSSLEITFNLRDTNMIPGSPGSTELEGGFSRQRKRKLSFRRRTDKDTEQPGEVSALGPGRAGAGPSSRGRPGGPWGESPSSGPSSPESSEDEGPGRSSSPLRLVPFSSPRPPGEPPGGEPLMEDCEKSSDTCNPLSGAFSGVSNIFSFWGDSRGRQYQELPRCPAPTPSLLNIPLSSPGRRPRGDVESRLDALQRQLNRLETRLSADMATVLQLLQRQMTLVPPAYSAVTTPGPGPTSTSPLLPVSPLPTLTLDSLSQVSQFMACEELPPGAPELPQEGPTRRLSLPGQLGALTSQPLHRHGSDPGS
Chain of C-C chemokine receptor type 5 (P51681 whole entry): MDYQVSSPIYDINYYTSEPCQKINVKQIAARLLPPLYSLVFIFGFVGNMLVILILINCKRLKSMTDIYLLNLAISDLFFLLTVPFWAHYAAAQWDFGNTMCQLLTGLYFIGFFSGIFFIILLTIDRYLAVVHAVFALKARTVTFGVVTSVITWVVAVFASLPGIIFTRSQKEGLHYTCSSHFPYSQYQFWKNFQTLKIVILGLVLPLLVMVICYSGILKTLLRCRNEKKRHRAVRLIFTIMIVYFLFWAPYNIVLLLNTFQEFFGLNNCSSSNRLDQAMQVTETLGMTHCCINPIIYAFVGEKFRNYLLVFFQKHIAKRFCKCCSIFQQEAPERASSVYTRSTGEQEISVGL
Chain of Nitric oxide synthase 1 (P29476 whole entry): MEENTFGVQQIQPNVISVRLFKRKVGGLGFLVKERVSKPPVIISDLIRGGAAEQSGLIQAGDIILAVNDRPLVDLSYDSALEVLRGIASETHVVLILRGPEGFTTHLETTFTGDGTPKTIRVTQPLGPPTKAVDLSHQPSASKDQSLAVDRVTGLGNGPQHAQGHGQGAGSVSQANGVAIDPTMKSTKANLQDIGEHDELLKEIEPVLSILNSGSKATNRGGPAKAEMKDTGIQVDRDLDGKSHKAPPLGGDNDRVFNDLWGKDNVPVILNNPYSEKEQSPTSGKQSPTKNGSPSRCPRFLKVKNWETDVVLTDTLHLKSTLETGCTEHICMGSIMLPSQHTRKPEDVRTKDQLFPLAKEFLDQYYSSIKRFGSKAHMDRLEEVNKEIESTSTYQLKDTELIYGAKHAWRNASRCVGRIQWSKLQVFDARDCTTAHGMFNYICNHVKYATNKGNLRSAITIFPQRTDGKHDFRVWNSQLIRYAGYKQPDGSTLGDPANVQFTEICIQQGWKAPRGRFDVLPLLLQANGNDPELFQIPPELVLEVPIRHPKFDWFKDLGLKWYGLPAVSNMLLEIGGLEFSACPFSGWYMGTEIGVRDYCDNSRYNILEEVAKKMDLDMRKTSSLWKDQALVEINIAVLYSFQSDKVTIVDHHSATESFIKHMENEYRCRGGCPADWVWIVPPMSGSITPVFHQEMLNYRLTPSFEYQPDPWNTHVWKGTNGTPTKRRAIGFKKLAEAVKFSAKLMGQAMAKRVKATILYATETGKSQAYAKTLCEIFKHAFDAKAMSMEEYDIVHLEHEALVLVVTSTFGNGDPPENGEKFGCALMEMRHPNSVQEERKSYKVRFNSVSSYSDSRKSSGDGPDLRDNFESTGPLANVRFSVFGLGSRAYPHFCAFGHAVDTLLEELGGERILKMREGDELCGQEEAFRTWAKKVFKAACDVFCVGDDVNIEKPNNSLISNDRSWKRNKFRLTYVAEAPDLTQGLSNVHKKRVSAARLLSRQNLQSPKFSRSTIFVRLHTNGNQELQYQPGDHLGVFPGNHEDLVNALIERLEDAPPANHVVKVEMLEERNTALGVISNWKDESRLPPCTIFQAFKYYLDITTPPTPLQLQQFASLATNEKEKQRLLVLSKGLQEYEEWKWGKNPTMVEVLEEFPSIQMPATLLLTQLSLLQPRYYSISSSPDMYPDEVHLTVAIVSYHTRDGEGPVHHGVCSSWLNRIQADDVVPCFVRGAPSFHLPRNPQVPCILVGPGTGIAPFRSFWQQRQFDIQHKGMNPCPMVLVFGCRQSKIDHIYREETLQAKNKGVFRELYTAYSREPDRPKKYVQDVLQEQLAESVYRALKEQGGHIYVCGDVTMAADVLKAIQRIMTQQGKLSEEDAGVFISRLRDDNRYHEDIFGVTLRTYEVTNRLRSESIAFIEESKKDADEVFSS

Row | Compound | IC50 (Nitric oxide synthase 1) | IC50 [1] | Ki [1] | IC50 (Insulin receptor) | IC50 [2] | Ki [2] | IC50 [3] | Ki [3] | IC50 [4] | IC50 [5] | IC50 [6] | Ki [6] | IC50 ([6]; read-out: IC50) | Ki ([6]; read-out: Ki) | Ki (Nitric oxide synthase 1) | Ki (Insulin receptor) | Ki [4] | Ki [5]
1 | COc1ccccc1C(=O)N1CCC(Cc2ccccc2)CC1 | Not Active | Not Active | Not Active | Not Active | Not Active | Not Active | Not Active | Not Active | Not Active | Not Active | Not Active | Not Active |  |  |  |  |  | 
2 | Cc1ccccc1C(=O)N1CCC(Cc2ccccc2)CC1 | Not Active | Not Active | Not Active | Not Active | Not Active | Not Active | Not Active | Not Active | Not Active | Not Active | Not Active | Not Active |  |  |  |  |  | 
3 | O=C1CC[C@H](N2C(=O)c3ccccc3C2=O)C(=O)N1 | Not Active | Not Active | Not Active | Not Active | Not Active | Not Active | Not Active | Not Active | Not Active | Not Active | Not Active | Not Active |  |  |  |  |  | 
4 | N=C(Nc1ccccc1)Nc1ccccc1 | Not Active | Not Active | Not Active | Not Active |  |  | Not Active | Not Active | Not Active | Not Active |  |  | 2640 nM | 1620 nM |  |  |  | 
5 | C[C@@H](O)[C@H](CO)NC(=O)[C@@H]1CSSC[C@H](NC(=O)[C@H](N)Cc2ccccc2)C(=O)N[C@@H](Cc2ccccc2)C(=O)N[C@H](Cc2c[nH]c3ccccc23)C(=O)N[C@@H](CCCCN)C(=O)N[C@@H]([C@@H](C)O)C(=O)N1 (H-[dF]CF[dW]KTC-{Threoninol(2S,3R)}; disulfide 2-7) | Not Active | Not Active | Not Active | Not Active | Not Active | Not Active | Not Active | Not Active | Not Active | Not Active | Not Active | Not Active |  |  |  |  |  | 
6 | S=C=Nc1cccc2ccccc12 [1-NAPHTHYLISOTHIOCYANATE] | Not Active | Not Active | Not Active | Not Active | Not Active | Not Active | Not Active | Not Active | Not Active | Not Active | Not Active | Not Active |  |  |  |  |  | 
7 | C[C@](O)(CS(=O)(=O)c1ccc(F)cc1)C(=O)Nc1ccc(C#N)c(C(F)(F)F)c1 [(R)-BICALUTAMIDE] | Not Active | Not Active | Not Active | Not Active | Not Active | Not Active | Not Active | Not Active | Not Active | Not Active | Not Active | Not Active |  |  |  |  |  | 
8 | CCCC(=O)Nc1ccc(OCC(O)CNC(C)C)c(C(C)=O)c1 (stereo not given) [ACEBUTOLOL] | Not Active | Not Active | Not Active | Not Active | Not Active | Not Active | Not Active | Not Active | Not Active |  | Not Active | Not Active |  |  |  |  |  | 
9 | CC(=O)Nc1ccc(O)cc1 [ACETAMINOPHEN] | Not Active | Not Active | Not Active | Not Active | Not Active | Not Active | Not Active | Not Active | Not Active | Not Active | Not Active | Not Active |  |  |  |  |  | 
10 | COc1cc2c(c3oc(=O)c4c(c13)CCC4=O)[C@@H]1C=CO[C@@H]1O2 [AFLATOXIN] | Not Active | Not Active | Not Active | Not Active | Not Active | Not Active | Not Active | Not Active | Not Active | Not Active | Not Active | Not Active |  |  | Not Active | Not Active | Not Active | Not Active
11 | N=C(N)NC(=O)c1nc(Cl)c(N)nc1N [AMILORIDE] | Not Active | Not Active | Not Active | Not Active | Not Active | Not Active | Not Active | Not Active | Not Active | Not Active | Not Active | Not Active |  |  |  |  |  | 
12 | Cc1cc(=O)n(-c2ccccc2)n1C [ANTIPYRINE] | Not Active | Not Active | Not Active | Not Active | Not Active | Not Active | Not Active | Not Active | Not Active | Not Active | Not Active | Not Active |  |  |  |  |  | 
13 | CN1C(=O)COc2c(C(=O)NC3CN4CCC3CC4)cc(Cl)cc21 (stereo not given) [AZASETRON] | Not Active | Not Active | Not Active | Not Active | Not Active | Not Active | Not Active | Not Active | Not Active | Not Active | Not Active | Not Active |  |  |  |  |  | 
14 | C[C@H]1C[C@H]2[C@@H]3CCC4=CC(=O)C=C[C@]4(C)[C@@]3(Cl)[C@@H](O)C[C@]2(C)[C@@]1(O)C(=O)CO [BECLOMETHASONE] | Not Active | Not Active | Not Active | Not Active | Not Active | Not Active | Not Active | Not Active | Not Active | Not Active | Not Active | Not Active |  |  |  |  |  | 
15 | CCOC(=O)[C@H](CCc1ccccc1)N[C@H]1CCc2ccccc2N(CC(=O)O)C1=O [BENAZEPRIL] | Not Active | Not Active | Not Active | Not Active | Not Active | Not Active | Not Active | Not Active | Not Active | Not Active | Not Active | Not Active |  |  |  |  |  | 
16 | Nc1c(CC(=O)O)cccc1C(=O)c1ccc(Br)cc1 [BROMFENAC] | Not Active | Not Active | Not Active | Not Active | Not Active | Not Active | Not Active | Not Active | Not Active | Not Active | Not Active | Not Active |  |  |  |  |  | 
17 | CCCCN1CCCCC1C(=O)Nc1c(C)cccc1C.Cl (stereo not given) [BUPIVACAINE HYDROCHLORIDE] | Not Active | Not Active | Not Active | Not Active | Not Active | Not Active | Not Active | Not Active | Not Active | Not Active | Not Active | Not Active |  |  |  |  |  | 
18 | CC1=C(C(=O)O)N2C(=O)[C@@H](NC(=O)[C@H](N)c3ccccc3)[C@H]2SC1 [CEPHALEXIN ANHYDROUS] | Not Active | Not Active | Not Active | Not Active |  |  | Not Active | Not Active | Not Active | Not Active | Not Active | Not Active |  |  |  |  |  | 
19 | O=C(N[C@H](CO)[C@H](O)c1ccc([N+](=O)[O-])cc1)C(Cl)Cl [CHLORAMPHENICOL] | Not Active | Not Active | Not Active | Not Active |  |  | Not Active | Not Active | Not Active | Not Active | Not Active | Not Active |  |  |  |  |  | 
20 | C/C=C/C[C@@H](C)[C@@H](O)[C@H]1C(=O)N[C@@H](CC)C(=O)N(C)CC(=O)N(C)[C@@H](CC(C)C)C(=O)N[C@@H](C(C)C)C(=O)N(C)[C@@H](CC(C)C)C(=O)N[C@@H](C)C(=O)N[C@H](C)C(=O)N(C)[C@@H](CC(C)C)C(=O)N(C)[C@@H](CC(C)C)C(=O)N(C)[C@@H](C(C)C)C(=O)N1C [CYCLOSPORINE] | Not Active | Not Active | Not Active | Not Active |  |  | Not Active | Not Active | Not Active | Not Active | Not Active | Not Active |  |  |  |  |  | 
21 | C[C@]12CC[C@@H]3c4ccc(O)cc4CC[C@H]3[C@@H]1CC[C@@H]2O [ESTRADIOL] | Not Active | Not Active | Not Active | Not Active |  |  | Not Active | Not Active | Not Active | Not Active | Not Active | Not Active |  |  |  |  |  | 
22 | COc1ccc2cc([C@H](C)C(=O)O)ccc2c1 [NAPROXEN] | Not Active | Not Active | Not Active | Not Active |  |  | Not Active | Not Active | Not Active | Not Active | Not Active | Not Active |  |  |  |  |  | 
23 | COC(=O)C1=C(C)NC(C)=C(C(=O)OCC(C)C)C1c1ccccc1[N+](=O)[O-] (stereo not given) [NISOLDIPINE] | Not Active | Not Active | Not Active | Not Active |  |  | Not Active | Not Active | Not Active | Not Active | Not Active | Not Active |  |  |  |  |  | 
24 | CCn1cc(C(=O)O)c(=O)c2cc(F)c(N3CCN(C)CC3)cc21 [PEFLOXACIN] | Not Active | Not Active | Not Active | Not Active |  |  | Not Active | Not Active | Not Active | Not Active | Not Active | Not Active |  |  |  |  |  | 
